In patent US20160031909A1, “PORPHYRAZINE OPTICAL AND DUAL OPTICAL/ MR CONTRAST AND THERAPEUTIC AGENTS” (HOFFMAN/BARRETT, LLC, priority 2013, published 2016):
“Also recorded” adds a separate entry of the source. Read-outs that look alike come from different tables or passages of the source.

How the values were obtained:
Water solubility = format: physicochemical
Description: The pz platform is diol pz 285, which was prepared and activated for nucleophilic substitution by arenesulfonylation to produce bis-tosylate pz 286 as previously described (13). Subsequent nucleophilic substitution of pz 286 with excess sodium azide gave diazide pz 288, which was suitable for conjugation via cycloaddition reactions with the alkyne-functionalized Gd595. (Scheme 1). The use of catalytic copper(II) sulfate in this conjugation reaction partially metallates the pz core. To address this issue, pz 288 either was metallated with ZnCl2 prior to reaction with the alkyne or a stoichiometric amount of the […] catalyst was used to ensure that the pz core was completely cuprated. Standard cycloaddition reaction conditions were subsequently used to conjugate metallated pz diazides with Gd595 to produce Zn-Pz-Gd(III) and Cu-Pz-Gd(III) conjugates, which were isolated by preparative HPLC in 52% and 57% isolated yields, respectively. Trace amounts of Zn-Pz-Gd(III) were transmetallated to Cu-Pz-Gd(III), but this small amount was removed during purification.

[1] = Relaxation time measurements (longitudinal relaxivity r1); format: physicochemical; conditions: water, 1.41 T (60 MHz), 37° C.
Source text: The efficiency of a contrast agent in reducing the longitudinal relaxation time of water protons is defined in terms as relaxivity (mM^−1 s^−1) (14). It has been predicted by Solomon-Bloembergen-Morgan theory that a slow molecule tumbling of an MRI agent causes an increase in rotational correlation time, Tr, which in turn results in increase in relaxivity (14, 15). A common approach to increase relaxivity by slowing down the molecular tumbling is to attach Gd(III) complexes to a macromolecule through rigid linkages (12,16). The relaxivity of the monomeric DOTA-Gd(III) (DOTA is 1,4,7,10-tetraazacyclododecane-N,N,N″,N″-tetraacetic acid) used in the clinic is shown for comparison (17). […] Both the Zn-Pz-Gd(III) and Cu-Pz-Gd(III) had higher longitudinal relaxivity than DOTAGd(III).
Solutions of M-Pz-Gd(III) (M=Zn, Cu) conjugates were dissolved in 500 μL of filtered, deionized H20 (18.2 MΩ·cm) for T1 acquisition. Relaxation times were measured on a Bruker mq60 NMRanalyzer equipped with Minispec v2.51 Rev.00/NT software (Bruker Biospin, Billerica, Mass., USA) operating at 1.41 T (60 MHz) and 37° C. T1 relaxation times were measured using an inversion recovery pulse sequence (T1—ir_mb) using the following parameters: 4 scans per point, 10 data points for fitting, mono-exponential curve fitting, phase cycling, 10 ms first pulse separation, and a recycle delay and final pulse separation≧5 T1. The gadolinium concentrations of each solution were determined using ICP-MS. The inverse of the longitudinal relaxation time (1/ T1, s^−1) was plotted against gadolinium concentration (mM) and fitted to a straight line with an R^2>0.99. The slope of the fitted line was recorded as the relaxivity, r1.

[2] = Octanol-water partition coefficients by ICP-MS; format: physicochemical; conditions: 1:1 water:1-octanol, 48 hours, Gd by ICP-MS
Description: Octanol-water partition coefficients (log P) were measured by ICP-MS to determine the hydrophilicity of the Pz-Gd(III) conjugates (4d, 18). The hydrophilicity of a molecule dictates cellular permeability where a balance in amphiphilicity is desired for ease of aqueous administration and maximum cellular uptake (19). Cu-Pz-Gd(III) is slightly more hydrophobic than Zn-Pz-Gd(III) and both conjugates are more hydrophobic than DOTA-Gd(III).
DOTA-Gd(I I I), Zn-Pz-Gd(III), and Cu-Pz-Gd(III) (0.5 mg) were dissolved in 1 mL of a 1:1 mixture of water:1-octanol, respectively. After shaking for 30 seconds, these tubes were placed on a rotator for gentle mixing to equilibrate for 48 hours. Gd(III) concentration in each layer was determined by ICP-MS. Partition coefficients were calculated from the equation log P=log(Co/Cw), where log P is the logarithm of the partition coefficient, Co is the concentration of Gd in the 1-octanol layer, and Cw is the concentration of Gd in the water layer.

[3] = monomeric DOTA-Gd(III), shown for comparison (ref 17), cited from earlier work
[4] = system: MDA-MB-231 orthotopic breast tumor; test: In vivo tumor MRI in orthotopic breast tumor model; design: species or system athymic nude mice; conditions: 0-225 min after tail vein injection; Cu-Pz-Gd(III) 450 nmol (50 mg/kg), DOTA-Gd(III) 900 nmol (25 mg/kg)
Description: Cu-Pz-Gd(III) was examined as a contrast agent in vivo in an orthotopic breast tumor model in athymic nude mice. MDA-MB-231 breast tumor cells expressing mCherry fluorescent protein were implanted in the mammary fat pad of mice and tumors were allowed to grow to about 5 mm in diameter at which time mice were treated with 450 nmol (50 mg/kg) Cu-Pz-Gd(III) together with saline treated control mice (FIG. 3A).
In a separate experiment focusing only on short time points (0-225 min), groups of mice (n=3) were treated with Cu-Pz-Gd(III) (450 nmol, 50 mg/kg), DOTA-Gd(I I I) (900 nmol, 25 mg/kg), and saline as a negative control (FIG. 4). Mice were imaged continuously after tail vein injections. […] Regions of interest (ROIs) were defined outside the periphery of tumors, at the inner rim, and at the center.
MDA-MB-231 cells (1×10^6) expressing mCherry fluorescent protein were inoculated subcutaneously (1:1 v/v matrigel:PBS) on the right mammary fat pad. Cells were maintained in DMEM media supplemented with 10% FBS prior to inoculation. The athymic nude mice, Crl:NU(NCr)-Foxnl^nm, were purchased from Charles River, Portage at 5-6 weeks old and 16-18 gram were allowed to acclimate for 5 days. One week post inoculation, each animal was screened for mCherry fluorescence wavelength using the IVIS small animal fluorescence imaging system to verify presence of the tumor.
Mice were anesthetized in an induction chamber with 3% inhaled isoflurane in oxygen, then transferred to an imaging bed with circulating warm water heating system, MRI compatible respiratory monitoring (SA Instruments, Stony Brook, N.Y.) and 1-2% isoflurane delivered via nosecone to maintain a surgical plane of anesthesia with respiratory rate at 90-100 breaths/min Mice were imaged prone with the tumor centered in a 40 mm diameter quadrature volume coil (Bruker Biospec, Billerica, Mass.). An AutoPac automated positioning system was used to reproducibly center the animals in the MRI system.
Mice were positioned in the MRI scanner as described above and localizer images were acquired. T1 maps were acquired using a FAIR-RARE non-selective inversion recovery sequence with static TR (18,000 ms) and TE (6.1 ms), and variable TI (30.5, 100, 200, 300, 500, 600, 700, 800, 900, 1000, 1100, 1200, 1300, 1400, 1600, 2000, 2500, 3000, 3500, 4000, 4500, 5000, and 6000 ms). Imaging parameters were as follows: field of view (FOV)=40×20 mm^2, matrix size(MTX)=512×133 pixels, number of slices=1, slice thickness=1.0 mm, and 1 average (total scan time=5 m 26 s).
Images were acquired at baseline, and 4, 24, and 48 hours after injection of 150 μL of imaging agent via the tail vein. One control animal was injected with saline; the remaining 9 animals were injected with 450 nmol Cu-Pz-Gd(III). Three animals were sacrificed after 4 hour, 24 hour, and 48 hour timepoints, respectively; the organs were collected for ICP-MS (described below) to measure biodistribution.
Mice were positioned in the MRI scanner as described above and localizer images were acquired. To improve signal to noise ratio, reduce respiratory artifacts, and increase tumor coverage, for this study we used a multi slice T1 map acquired using a variable repetition time saturation recovery sequence (RARE-VTR) with static TE (8.2 ms) and variable TR (175, 300, 600, 800, 1200, 2000, 4000 ms). Imaging parameters were as follows: FOV=10×7.5 mm, MTX=80×60, number of axial slices=5, slice thickness=1.0 mm, and 1 average (total scan time=6 min 48 sec). […]

Row | water solubility (Water solubility) | Ionic r1 ([1]; per Gd(III)) | Molecular r1 ([1]; per molecule (2 Gd(III))) | log P [2] | Molecule | Molecular r1 ([3]; 1 Gd(III)) | Ionic r1 [3] | tumor T1 over time [4]
1 | freely water soluble | 6.9 mM^−1 S^−1 | 13.8 mM^−1 S^−1 | −3.13 | Zn[Pz(C17H27N5O7Gd)2]. Pz=18,21-bis(2-(1H-1,2,3-triazole-4-yl) ethoxy)-tris-[1,4-dioxino[g,l,q](2R,3R)-2,3-dimethoxy-2,3-dimethyll 25H,27H-benzo[b]porphyrazine; C17H27N5O7Gd=N-methyl-2-aminoacetamide-4,7,10-tris(carboxymethyl)-1,4,7,10-tetraazacyclododecylgadolinium(III)) [Zn-Pz-Gd(III)] |  |  | 
2 |  |  |  | −3.42 | O=C([O-])CN1CCN(CC(=O)[O-])CCN(CC(=O)O)CCN(CC(=O)[O-])CC1.[Gd+3] [DOTA-Gd(III), reference compound] | 3.1 mM^−1 S^−1 | 3.1 mM^−1 S^−1 | dips transiently but returns quickly to baseline; also recorded: enters the tumor, but is cleared relatively rapidly; also recorded: initial decrease in tumor T1 followed by recovery of signal
